pIC50: −log10 of the molar value. Where a name gives a salt, the structure may show the parent alone.
Test system: PAM 212 keratinocytes
Assay: Photo-induced growth inhibition assay against PAM 212 keratinocytes (UVA activated)
Assay type: cell-based
Conditions: 1.28 J/cm^2 UVA (320-400 nm), cells counted after 4-5 days of growth, read-out: IC50 (concentration at which photoactivated test compound inhibited growth by 50%)
Method: The photobiological activity was assayed using a keratinocyte cell line grown in a monolayer culture. In this assay, PAM 212 keratinocytes were grown in Dulbecco's Modified Eagle's medium supplemented with 10% newborn calf serum in a 5% carbon dioxide incubator. Cells were inoculated into 6-well Falcon plastic culture dishes at 25,000 cells per well. After 24 hours, the medium was charged to fresh growth medium supplemented with increasing concentrations of the test compounds or the control medium. Controls and test concentrations were analyzed in triplicate.
These plates were incubated in a 37° C. carbon dioxide incubator. After 30 minutes, culture plates were exposed to UVA light (UVA, 320-400 nm) emitted from a bank of four BLB fluorescence light tubes (F40 BL, Sylvania) placed approximately 10 cm above the cell culture plates. The incident light on the culture plates was 2.4 mW/cm^2 as measured with an International Light UV radiometer, Model IL442A). […]
After completion of the irradiation phase, the cell culture medium was drained, the cells were refed with fresh growth medium and then re-incubated with carbon dioxide incubator to allow for cell growth. […] The cells were detached from the plates with trypsin and counted in a Coulter Counter. For control cells or for cells treated with test compounds, cell growth was determined as a percentage of control.

Compound	pIC50
CN(C)CCOc1c2c(cc3ccc(=O)oc13)CCO2 [Formula I R=H, R1=H, A-B=—CH2—CH2—, 8-[2-(N,N-dimethylamino)ethoxy]-4′,5′-dihydropsoralen hydrochloride salt]	4.89
8-[2-(N,N-dimethylamino)ethoxyl-psoralen hydrochloride salt [Formula I (R=H, R1=H, A-B=—CH═CH—)]	7.92
